Measured values published in patent US8188001B2, “Fungicidal mixtures” (BASF Aktiengesellschaft, priority 2002, dated 2012).

Assays:
[1] = system: Erysiphe [syn. Blumeria] graminis form a specialis. tritici; experiment: Activity against mildew of wheat, protective spray on potted wheat seedlings; assay type: in vivo; conditions: wheat cv. Kanzler, 7 days
Protocol: (§1) The active compounds, separately or together, were formulated as a 10% emulsion in a mixture of 85% by weight of cyclohexanone and 5% by weight of emulsifier, and diluted with water to the desired concentration.
(§2) Evaluation was carried out by determining the infected leaf areas in percent. These percentages were converted into efficacies. The efficacy (W) was calculated as follows using Abbot's formula:
(§3) [formula] • α corresponds to the fungal infection of the treated plants in % and • β corresponds to the fungal infection of the untreated (control) plants in %.
(§4) An efficacy of 0 means that the infection level of the treated plants corresponds to that of the untreated control plants; an efficacy of 100 means that the treated plants were not infected.
(§5) The expected efficacies of the mixtures of the active compounds were determined using Colby's formula [R. S. Colby, Weeds 15, 20-22 (1967)] and compared with the observed efficacies. Colby formula: E=x+y−xy/100 • E expected efficacy, expressed in % of the untreated control, when using the mixture of the active compounds A and B at the concentrations a and b • x efficacy, expressed in % of the untreated control, when using active compound A at a concentration of a • y efficacy, expressed in % of the untreated control, when using active compound B at a concentration of b.
Use example 1: Activity against mildew of wheat caused by Erysiphe [syn. Blumeria] graminis form a specialis. tritici
Leaves of wheat seedlings of the cultivar “Kanzler”, grown in pots, were sprayed to runoff point with an aqueous preparation of active compound which had been prepared from a stock solution comprising 10% of active compound, 85% of cyclohexanone and 5% of emulsifier, and 24 hours after the spray coating had dried on, the leaves were dusted with spores of mildew of wheat (Erysiphe [syn. Blumeria] graminis form a specialis. tritici). The test plants were then placed in a greenhouse at 20-24° C. and 60-90% relative atmospheric humidity. After 7 days, the extent of the mildew development was determined visually in % infection of the entire leaf area.
The visually determined values for the percentage of diseased leaf areas were converted into efficacies in % of the untreated control. An efficacy of 0 means the same disease level as in the untreated control, an efficacy of 100 means a disease level of 0%. The expected efficacies for the combinations of active compounds were determined using Colby's formula, mentioned above, and compared with the observed efficacies.

Sphaerotheca fuliginea = experiment: Protective activity against mildew of cucumber, spray on potted cucumber seedlings; assay type: in vivo; conditions: cucumber cv. chinese snake, 7 days
Protocol: as §1, §2, §3, §4, §5
Use example 2: Protective activity against mildew of cucumber caused by Sphaerotheca fuliginea
Leaves of cucumber seedlings of the cultivar “chinese snake”, grown in pots, were, at the cotyledon stage, sprayed to runoff point with an aqueous preparation of active compound which had been prepared from a stock solution comprising 10% of active compound, 85% of cyclohexanone and 5% of emulsifier. 20 hours after the spray coating had dried on, the plants were inoculated with an aqueous spore suspension of mildew of cucumber (Sphaerotheca fuliginea). The plants were then cultivated in a greenhouse at 20-24° C. and 60-80% relative atmospheric humidity for 7 days. The extent of the mildew development was then determined visually in % infection of the cotyledon area. The visually determined values for the percentage of diseased leaf areas were converted into efficacies in % of the untreated control. An efficacy of 0 means the same disease level as in the untreated control, an efficacy of 100 means a disease level of 0%. The expected efficacies for the combinations of active compounds were determined using Colby's formula, mentioned above, and compared with the observed efficacies.

Compound | Efficacy in % of the untreated control ([1]; 0.06 ppm in the spray liquor) [%] | Efficacy in % of the untreated control ([1]; 0.25 ppm in the spray liquor) [%] | Efficacy in % of the untreated control ([1]; 1 ppm in the spray liquor) [%] | Efficacy in % of the untreated control ([1]; 4 ppm in the spray liquor) [%] | Efficacy in % of the untreated control (Sphaerotheca fuliginea; 0.25 ppm in the spray liquor) [%] | Efficacy in % of the untreated control (Sphaerotheca fuliginea; 1 ppm in the spray liquor) [%] | Efficacy in % of the untreated control (Sphaerotheca fuliginea; 0.015 ppm in the spray liquor) [%] | Efficacy in % of the untreated control (Sphaerotheca fuliginea; 0.06 ppm in the spray liquor) [%] | Efficacy in % of the untreated control ([1]; 0.015 ppm in the spray liquor) [%] | Efficacy in % of the untreated control (Sphaerotheca fuliginea; 4 ppm in the spray liquor) [%]
Cc1ccc(-c2c(Cl)nc(C#N)n2S(=O)(=O)N(C)C)cc1 [Compound XI, cyazofamid] | 0 | 22 | 22 |  |  |  |  |  |  | 
OC(Cc1ccccc1Cl)(Cn1nc[nH]c1=S)C1(Cl)CC1 (stereo not shown) [Compound I, 2-[2-(1-chlorocyclopropyl)-3-(2-chlorophenyl)-2-hydroxypropyl]-2,4-dihydro-[1,2,4]-triazole-3-thione] |  | 0 | 0 | 42 | 56 | 78 |  |  |  | 
N#Cc1sc2c(=O)c3ccccc3c(=O)c=2sc1C#N [Compound VIII, dithianon] |  |  | 0 | 0 |  |  |  |  |  | 
O=C(Cc1ccccc1)N/C(=N\OCC1CC1)c1c(OC(F)F)ccc(F)c1F [Compound VI] | 0 | 53 |  |  |  |  | 0 | 33 |  | 
COc1cc(C)c(C(=O)c2c(OC)ccc(Br)c2C)c(OC)c1OC [Compound IV, metrafenone] | 53 |  |  |  |  |  | 0 | 0 | 30 | 
O=C(Nc1ccccc1-c1ccc(Cl)cc1)c1cccnc1Cl [Compound II, boscalid] | 0 | 0 | 0 | 0 | 0 |  |  | 0 |  | 78
